Measured values as given in BigSolDB 2.1.

CC(=O)[O-].C[N+](C)(C)CCO
solubility (mole fraction) (in ethanol, 259.8 K): 0.049 | solubility (mole fraction) (in ethanol, 261.8 K): 0.067 | solubility (mole fraction) (in ethanol, 263.9 K): 0.09 | solubility (mole fraction) (in ethanol, 265.7 K): 0.112 | solubility (mole fraction) (in ethanol, 267.1 K): 0.13 | solubility (mole fraction) (in ethanol, 267.8 K): 0.143 | solubility (mole fraction) (in ethanol, 271.7 K): 0.174 | solubility (mole fraction) (in ethanol, 272.1 K): 0.184 | solubility (mole fraction) (in ethanol, 276.6 K): 0.228 | solubility (mole fraction) (in ethanol, 278.5 K): 0.252 | solubility (mole fraction) (in ethanol, 282.8 K): 0.29 | solubility (mole fraction) (in ethanol, 286.1 K): 0.319 | solubility (mole fraction) (in n-butanol, 268.2 K): 0.023 | solubility (mole fraction) (in n-butanol, 273 K): 0.048 | solubility (mole fraction) (in n-butanol, 276.9 K): 0.074 | solubility (mole fraction) (in n-butanol, 279.9 K): 0.102 | solubility (mole fraction) (in n-butanol, 281.8 K): 0.136 | solubility (mole fraction) (in n-butanol, 284.2 K): 0.172 | solubility (mole fraction) (in n-butanol, 287.7 K): 0.209 | solubility (mole fraction) (in n-butanol, 290.4 K): 0.233 | solubility (mole fraction) (in n-butanol, 295.4 K): 0.293 | solubility (mole fraction) (in n-butanol, 297.7 K): 0.317 | solubility (mole fraction) (in n-propanol, 263.8 K): 0.0191 | solubility (mole fraction) (in n-propanol, 266.9 K): 0.0394 | solubility (mole fraction) (in n-propanol, 270.3 K): 0.062 | solubility (mole fraction) (in n-propanol, 273.1 K): 0.0844 | solubility (mole fraction) (in n-propanol, 274.1 K): 0.11 | solubility (mole fraction) (in n-propanol, 276 K): 0.144 | solubility (mole fraction) (in n-propanol, 277.7 K): 0.174 | solubility (mole fraction) (in n-propanol, 279.9 K): 0.211 | solubility (mole fraction) (in n-propanol, 280.9 K): 0.234 | solubility (mole fraction) (in n-propanol, 282.7 K): 0.269 | solubility (mole fraction) (in n-propanol, 285.2 K): 0.316

C[N+](C)(C)CCO.[Cl-]
solubility (mole fraction) (in ethanol, 269.8 K): 0.017 | solubility (mole fraction) (in ethanol, 276.4 K): 0.027 | solubility (mole fraction) (in ethanol, 281.8 K): 0.038 | solubility (mole fraction) (in ethanol, 287.2 K): 0.054 | solubility (mole fraction) (in ethanol, 290.5 K): 0.066 | solubility (mole fraction) (in ethanol, 292.4 K): 0.072 | solubility (mole fraction) (in ethanol, 296.7 K): 0.082 | solubility (mole fraction) (in ethanol, 300.5 K): 0.089 | solubility (mole fraction) (in ethanol, 305.7 K): 0.098 | solubility (mole fraction) (in ethanol, 308.4 K): 0.109 | solubility (mole fraction) (in ethanol, 315.3 K): 0.125 | solubility (mole fraction) (in ethanol, 321.6 K): 0.138 | solubility (mole fraction) (in n-butanol, 314.6 K): 0.031 | solubility (mole fraction) (in n-butanol, 321.2 K): 0.049 | solubility (mole fraction) (in n-butanol, 328.6 K): 0.068 | solubility (mole fraction) (in n-butanol, 340.8 K): 0.086 | solubility (mole fraction) (in n-butanol, 346.4 K): 0.109 | solubility (mole fraction) (in n-butanol, 349.4 K): 0.131 | solubility (mole fraction) (in n-butanol, 352.9 K): 0.147 | solubility (mole fraction) (in n-propanol, 288.9 K): 0.015 | solubility (mole fraction) (in n-propanol, 295.7 K): 0.023 | solubility (mole fraction) (in n-propanol, 302.3 K): 0.039 | solubility (mole fraction) (in n-propanol, 308.7 K): 0.05 | solubility (mole fraction) (in n-propanol, 309.6 K): 0.059 | solubility (mole fraction) (in n-propanol, 316.5 K): 0.073 | solubility (mole fraction) (in n-propanol, 323.2 K): 0.086 | solubility (mole fraction) (in n-propanol, 330.7 K): 0.108 | solubility (mole fraction) (in n-propanol, 335.3 K): 0.129 | solubility (mole fraction) (in n-propanol, 338 K): 0.153

C[N+](C)(C)CCOC(=O)CCC(=O)O.[Cl-]
solubility (mole fraction) (in ethanol, 299 K): 0.008 | solubility (mole fraction) (in ethanol, 300.8 K): 0.01 | solubility (mole fraction) (in ethanol, 305.5 K): 0.015 | solubility (mole fraction) (in ethanol, 310.9 K): 0.02 | solubility (mole fraction) (in ethanol, 313.1 K): 0.026 | solubility (mole fraction) (in ethanol, 315.6 K): 0.028 | solubility (mole fraction) (in ethanol, 320.5 K): 0.038 | solubility (mole fraction) (in ethanol, 322 K): 0.044 | solubility (mole fraction) (in n-butanol, 300.4 K): 0.003 | solubility (mole fraction) (in n-butanol, 308.8 K): 0.004 | solubility (mole fraction) (in n-butanol, 312.7 K): 0.006 | solubility (mole fraction) (in n-butanol, 318.8 K): 0.008 | solubility (mole fraction) (in n-butanol, 322.4 K): 0.009 | solubility (mole fraction) (in n-butanol, 326.4 K): 0.012 | solubility (mole fraction) (in n-butanol, 329.8 K): 0.014 | solubility (mole fraction) (in n-butanol, 338.8 K): 0.016 | solubility (mole fraction) (in n-propanol, 299.2 K): 0.006 | solubility (mole fraction) (in n-propanol, 305.5 K): 0.008 | solubility (mole fraction) (in n-propanol, 310.9 K): 0.01 | solubility (mole fraction) (in n-propanol, 318.7 K): 0.013 | solubility (mole fraction) (in n-propanol, 325.2 K): 0.02 | solubility (mole fraction) (in n-propanol, 328.9 K): 0.025 | solubility (mole fraction) (in n-propanol, 333.2 K): 0.031 | solubility (mole fraction) (in n-propanol, 336.1 K): 0.039

C[N+](C)(C)CCOC(=O)CCCC(=O)O.[Cl-]
solubility (mole fraction) (in ethanol, 300.2 K): 0.006 | solubility (mole fraction) (in ethanol, 310.6 K): 0.008 | solubility (mole fraction) (in ethanol, 316.8 K): 0.01 | solubility (mole fraction) (in ethanol, 318.5 K): 0.012 | solubility (mole fraction) (in ethanol, 322.1 K): 0.017 | solubility (mole fraction) (in ethanol, 325.4 K): 0.023 | solubility (mole fraction) (in ethanol, 333.2 K): 0.033 | solubility (mole fraction) (in ethanol, 335.8 K): 0.039 | solubility (mole fraction) (in ethanol, 338.1 K): 0.043 | solubility (mole fraction) (in ethanol, 339.4 K): 0.055 | solubility (mole fraction) (in n-butanol, 304.8 K): 0.001 | solubility (mole fraction) (in n-butanol, 318.7 K): 0.0019 | solubility (mole fraction) (in n-butanol, 323.8 K): 0.0022 | solubility (mole fraction) (in n-butanol, 327.5 K): 0.0025 | solubility (mole fraction) (in n-butanol, 330.4 K): 0.0029 | solubility (mole fraction) (in n-butanol, 335.1 K): 0.0035 | solubility (mole fraction) (in n-butanol, 341 K): 0.004 | solubility (mole fraction) (in n-propanol, 305.4 K): 0.002 | solubility (mole fraction) (in n-propanol, 306.6 K): 0.003 | solubility (mole fraction) (in n-propanol, 309.4 K): 0.003 | solubility (mole fraction) (in n-propanol, 315.5 K): 0.004 | solubility (mole fraction) (in n-propanol, 319.9 K): 0.005 | solubility (mole fraction) (in n-propanol, 324.6 K): 0.008 | solubility (mole fraction) (in n-propanol, 331.2 K): 0.011 | solubility (mole fraction) (in n-propanol, 335.1 K): 0.013 | solubility (mole fraction) (in n-propanol, 338.5 K): 0.017
